Measured values as given in patent US10759813B2, “Neprilysin inhibitors” (THERAVANCE BIOPHARMA R&D IP, LLC, priority 2010, dated 2020).

molecular target: human neprilysin (EC 3.4.24.11; NEP) (Homo sapiens (Human), UniProt P08473); test: In vitro enzyme inhibition assay at human NEP (fluorogenic peptide substrate); type: biochemical; settings: pKi values at human NEP, recombinant human NEP
Experimental: In Vitro Assays for the Quantitation of Inhibitor Potencies at Human and Rat NEP, and Human ACE
The inhibitory activities of compounds at human and rat neprilysin (EC 3.4.24.11; NEP) and human angiotensin converting enzyme (ACE) were determined using in vitro assays as described below.
Recombinant human NEP and recombinant human ACE were obtained commercially (R&D Systems, Minneapolis, Minn., catalog numbers 1182-ZN and 929-ZN, respectively). The fluorogenic peptide substrate Mca-D-Arg-Arg-Leu-Dap-(Dnp)-OH (Medeiros et al. (1997) Braz. J. Med. Biol. Res. 30:1157-62; Anaspec, San Jose, Calif.) and Abz-Phe-Arg-Lys(Dnp)-Pro-OH (Araujo et al. (2000) Biochemistry 39:8519-8525; Bachem, Torrance, Calif.) were used in the NEP and ACE assays respectively.
The assays were performed in 384-well white opaque plates at 37° C. using the fluorogenic peptide substrates at a concentration of 10 μM in Assay Buffer (NEP: 50 mM HEPES, pH 7.5, 100 mM NaCl, 0.01% polyethylene glycol sorbitan monolaurate (Tween-20), 10 μM ZnSO4; ACE: 50 mM HEPES, pH 7.5, 100 mM NaCl, 0.01% Tween-20, 1 μM ZnSO4).
Test compounds were assayed over the range of concentrations from 10 μM to pM. Test compounds were added to the enzymes and incubated for 30 minute at 37° C. prior to initiating the reaction by the addition of substrate. Reactions were terminated after 20 minutes of incubation at 37° C. by the addition of glacial acetic acid to a final concentration of 3.6% (v/v).
Plates were read on a fluorometer with excitation and emission wavelengths set to 320 nm and 405 nm, respectively. Inhibition constants were obtained by nonlinear regression of the data using the equation (GraphPad Software, Inc., San Diego, Calif.): v=v0/[1+(I/K′)] where v is the reaction rate, v0 is the uninhibited reaction rate, I is the inhibitor concentration and K′ is the apparent inhibition constant.
Compounds of the invention were tested in this assay and found to have pKi values at human NEP as follows.

human neprilysin (EC 3.4.24.11; NEP), sequence (P08473 52-750): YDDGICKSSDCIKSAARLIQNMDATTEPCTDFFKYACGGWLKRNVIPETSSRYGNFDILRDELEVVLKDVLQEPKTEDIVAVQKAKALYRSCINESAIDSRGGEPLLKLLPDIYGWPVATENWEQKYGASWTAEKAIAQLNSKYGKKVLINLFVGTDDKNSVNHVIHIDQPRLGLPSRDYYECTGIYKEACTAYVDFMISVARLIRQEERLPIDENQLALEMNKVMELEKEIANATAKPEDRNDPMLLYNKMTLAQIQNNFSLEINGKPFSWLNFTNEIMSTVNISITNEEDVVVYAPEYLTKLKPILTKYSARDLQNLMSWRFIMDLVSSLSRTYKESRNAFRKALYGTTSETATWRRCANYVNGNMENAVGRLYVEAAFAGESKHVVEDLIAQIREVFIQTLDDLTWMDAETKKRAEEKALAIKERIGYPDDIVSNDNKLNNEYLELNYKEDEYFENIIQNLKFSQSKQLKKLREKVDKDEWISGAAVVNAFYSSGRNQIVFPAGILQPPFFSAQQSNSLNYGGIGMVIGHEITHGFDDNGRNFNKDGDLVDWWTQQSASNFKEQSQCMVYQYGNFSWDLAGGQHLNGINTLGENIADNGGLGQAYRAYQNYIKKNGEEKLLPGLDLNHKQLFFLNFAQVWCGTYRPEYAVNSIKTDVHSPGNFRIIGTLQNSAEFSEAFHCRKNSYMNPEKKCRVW

SMILES	pKi	Ki [nM]
COc1ccc(F)cc1-c1cc(C(=O)N[C@H](Cc2ccc(-c3ccccc3)cc2)C[C@@H](O)C(=O)O)[nH]n1 [Example 15-86, (2R,4R)-5-Biphenyl-4-yl-4-{[5-(5-fluoro-2-methoxy-phenyl)-2H-pyrazole-3-carbonyl]-amino}-2-hydroxy-pentanoic acid]	≥9.0	–
COc1cc(C(=O)N[C@H](Cc2ccc(-c3ccccc3)cc2)C[C@@H](O)C(=O)O)on1 [Example 12-3, (2R,4R)-5-Biphenyl-4-yl-2-hydroxy-4-[(3-methoxyisoxazole-5-carbonyl)amino]-pentanoic acid]	–	1.26 to 10
CCCc1cc(C(=O)N[C@H](Cc2ccc(-c3cccc(Cl)c3)cc2)C[C@@H](O)C(=O)O)on1 [Example 18-11, (2R,4R)-5-(3′-Chloro-biphenyl-4-yl)-2-hydroxy-4-[(3-propyl-isoxazole-5-carbonyl)-amino]-pentanoic acid]	≥9.0	–
CC(O)c1cc(C(=O)N[C@H](Cc2ccc(-c3cccc(Cl)c3)cc2)C[C@@H](O)C(=O)O)[nH]n1 (stereo partly drawn) [Example 18-32, (2R,4R)-5-(3′-Chloro-biphenyl-4-yl)-2-hydroxy-4-{[5-(1-hydroxy-ethyl)-2H-pyrazole-3-carbonyl]-amino}-pentanoic acid]	≥9.0	–
O=C(N[C@H](Cc1ccc(-c2ccccc2)cc1)C[C@@H](O)C(=O)O)c1cc(-c2ccc(Cl)cc2)no1 [Example 12-4, (2R,4R)-5-Biphenyl-4-yl-4-{[3-(4-chlorophenyl)-isoxazole-5-carbonyl]-amino}-2-hydroxy-pentanoic acid]	≥9.0	–
O=C(N[C@H](Cc1ccc(-c2ccccc2)cc1)C[C@@H](O)C(=O)O)c1n[nH]c(O)n1 [Example 10-9, (2R,4R)-5-Biphenyl-4-yl-2-hydroxy-4-[(5-hydroxy-1H-[1,2,4]triazole-3-carbonyl)amino]-pentanoic acid]	–	1.26 to 10
O=C(N[C@H](Cc1ccc(-c2ccccc2)cc1)C[C@@H](O)C(=O)O)c1cnn[nH]1 [Example 10-2, (2R,4R)-5-Biphenyl-4-yl-2-hydroxy-4-[(3H-[1,2,3]triazole-4-carbonyl)amino]pentanoic acid]	–	1.26 to 10
COCCN(C)C(=O)c1cc(C(=O)N[C@H](Cc2ccc(-c3ccccc3)cc2)C[C@@H](O)C(=O)O)[nH]n1 [Example 3-D, (2R,4R)-5-Biphenyl-4-yl-2-hydroxy-4-({5-[(2-methoxyethyl)methylcarbamoyl]-2H-pyrazole-3-carbonyl}amino)pentanoic Acid]	≥9.0	–
C[C@H](O)c1cc(C(=O)N[C@H](Cc2ccc(-c3ccccc3)cc2)C[C@@H](O)C(=O)O)[nH]n1 [Example 15-109, (2R,4R)-5-Biphenyl-4-yl-2-hydroxy-4-{[5-((S)-1-hydroxyethyl)-2H-pyrazole-3-carbonyl]amino}pentanoic acid]	–	1.26 to 10
O=C(N[C@H](Cc1ccc(-c2ccccc2)cc1)C[C@@H](O)C(=O)O)c1cc(-c2ccccn2)n[nH]1 [Example 15-102, (2R,4R)-5-Biphenyl-4-yl-2-hydroxy-4-[(5-pyridin-2-yl-2H-pyrazole-3-carbonyl)-amino]-pentanoic acid]	–	≤ 1
Cn1nc(C(=O)N[C@H](Cc2ccc(-c3ccccc3)cc2)CC(O)C(=O)O)cc1-c1ccccc1 (stereo partly drawn) [Example 15-34, (R)-5-Biphenyl-4-yl-2-hydroxy-4-[(1-methyl-5-phenyl-1H-pyrazole-3-carbonyl)amino]-pentanoic acid]	–	1.26 to 10
O=C(N[C@H](Cc1ccc(-c2cccc(Cl)c2)cc1)C[C@@H](O)C(=O)O)c1n[nH]c(Cl)n1 [Example 18-46, (2R,4R)-5-(3′-Chlorobiphenyl-4-yl)-4-[(5-chloro-1H-[1,2,4]triazole-3-carbonyl)-amino]-2-hydroxy-pentanoic acid]	≥9.0	–
CC(=O)OCOn1nnc2ccc(C(=O)N[C@H](Cc3ccc(-c4cc(Cl)ccc4Cl)cc3)C[C@@H](O)C(=O)O)cc21 [Example 19-21, (2R,4R)-4-[(3-Acetoxymethoxy-3H-benzotriazole-5-carbonyl)-amino]-5-(2′,5-dichloro-biphenyl-4-yl)-2-hydroxy-pentanoic acid]	–	≤ 1
CC(C)CN(C)C(=O)c1cc(C(=O)N[C@H](Cc2ccc(-c3ccccc3)cc2)C[C@H](O)C(=O)O)[nH]n1 [Example 15-65, (2S,4R)-5-Biphenyl-4-yl-2-hydroxy-4-{[5-(isobutylmethyl-carbamoyl)-2H-pyrazole-3-carbonyl]amino}-pentanoic acid]	–	12.6 to 100
O=C(NC(Cc1ccc(-c2ccccc2)cc1)C[C@@H](O)C(=O)O)c1cc(-c2ccc(Cl)cc2)n[nH]1 (stereo partly shown) [Example 15-83]	≥9.0	–
O=C(N[C@H](Cc1ccc(-c2ccccc2)cc1)CC(O)C(=O)O)c1cc(C(=O)O)n(Cc2ccc(Cl)cc2F)n1 (stereo partly drawn) [Example 15-13, 5-((R)-1-Biphenyl-4-ylmethyl-3-carboxy-3-hydroxy-propylcarbamoyl)-2-(4-chloro-2-fluorobenzyl)-2H-pyrazole-3-carboxylic acid]	–	1.26 to 10
O=C(N[C@H](Cc1ccc(-c2ccccc2)cc1)C[C@@H](O)C(=O)O)c1cc(C2CCCCC2)no1 [Example 12-7, (2R,4R)-5-Biphenyl-4-yl-4-[(3-cyclohexyl-isoxazole-5-carbonyl)-amino]-2-hydroxy-pentanoic acid]	≥9.0	–
NC(=O)c1cc(C(=O)N[C@H](Cc2ccc(-c3ccccc3)cc2)CC(O)C(=O)O)[nH]n1 (stereo partly drawn) [Example 15-59, (R)-5-Biphenyl-4-yl-4-[(5-carbamoyl-2H-pyrazole-3-carbonyl)-amino]-2-hydroxy-pentanoic acid]	–	1.26 to 10
O=C(O)CNC(=O)c1cc(C(=O)N[C@H](Cc2ccc(-c3ccccc3)cc2)CC(O)C(=O)O)[nH]n1 (stereo partly drawn) [Example 15-56, (R)-5-Biphenyl-4-yl-4-{[5-(carboxymethyl-carbamoyl)-2H-pyrazole-3-carbonyl]-amino}-2-hydroxy-pentanoic acid]	–	1.26 to 10
O=C(N[C@H](Cc1ccc(-c2cc(Cl)ccc2Cl)cc1)C[C@@H](O)C(=O)O)c1cn(O)nn1 [Example 19-1, (2R,4R)-5-(2′,5′-Dichlorobiphenyl-4-yl)-2-hydroxy-4-[(1-hydroxy-1H-[1,2,3]triazole-4-carbonyl)-amino]-pentanoic acid]	≥9.0	–
CC(C)(c1ccc(-c2ccccc2)cc1)[C@H](C[C@@H](O)C(=O)O)NC(=O)c1cc(O)no1 [Example 25-3, (2R,4S)-5-Biphenyl-4-yl-2-hydroxy-4-[(3-hydroxy-isoxazole-5-carbonyl)-amino]-5-methyl-hexanoic acid]	≥9.0	–
CCC(=O)Nc1cc(C(=O)N[C@H](Cc2ccc(-c3ccccc3)cc2)CC(O)C(=O)O)[nH]n1 (stereo partly drawn) [Example 15-91, (R)-5-Biphenyl-4-yl-2-hydroxy-4-[(5-propionylamino-2H-pyrazole-3-carbonyl)-amino]-pentanoic acid]	–	12.6 to 100
O=C(N[C@H](Cc1ccc(-c2ccccc2)cc1)C[C@@H](O)C(=O)O)c1cnc(-c2ccccc2)o1 [Example 12-23, (2R,4R)-5-Biphenyl-4-yl-2-hydroxy-4-[(2-phenyl-oxazole-5-carbonyl)-amino]-pentanoic acid]	–	1.26 to 10
Cn1cc(-c2cc(C(=O)N[C@H](Cc3ccc(-c4ccccc4)cc3)CC(O)C(=O)O)n[nH]2)cn1 (stereo partly drawn) [Example 15-23, (R)-5-Biphenyl-4-yl-2-hydroxy-4-[(1′-methyl-2H, 1′H-[3,4′]bipyrazolyl-5-carbonyl)amino]-pentanoic acid]	–	12.6 to 100
CN(C)CCNC(=O)c1cc(C(=O)N[C@H](Cc2ccc(-c3ccccc3)cc2)CC(O)C(=O)O)[nH]n1 (stereo partly drawn) [Example 15-71, (R)-5-Biphenyl-4-yl-4-{[5-(2-dimethylamino-ethylcarbamoyl)-2H-pyrazole-3-carbonyl]-amino}-2-hydroxy-pentanoic acid]	–	1.26 to 10
O=C(N[C@H](Cc1ccc(-c2ccccc2)cc1)CC(O)C(=O)O)c1cc(C(=O)N2CCC(O)C2)n[nH]1 (stereo partly drawn) [Example 15-42, (R)-5-Biphenyl-4-yl-2-hydroxy-4-{[5-(3-hydroxypyrrolidine-1-carbonyl)-2H-pyrazole-3-carbonyl]-amino}-pentanoic acid]	–	≤ 1
O=C(N[C@H](Cc1ccc(-c2ccccc2)cc1Cl)C[C@@H](O)C(=O)O)c1nn(-c2ccccc2)c(=O)[nH]1 [Example 20-4, (2R,4R)-5-(3-Chloro-biphenyl-4-yl)-2-hydroxy-4-[(5-oxo-1-phenyl-4,5-dihydro-1H-[1,2,4]triazole-3-carbonyl)-amino]-pentanoic acid]	≥9.0	–
O=C(N[C@H](Cc1ccc(-c2ccccc2)cc1)CC(O)C(=O)O)c1cc(C(=O)N2CCOCC2)n[nH]1 (stereo partly drawn) [Example 15-53, (R)-5-Biphenyl-4-yl-2-hydroxy-4-{[5-(morpholine-4-carbonyl)-2H-pyrazole-3-carbonyl]amino}pentanoic acid]	–	1.26 to 10
